Test results from paper PMC9186412, “Rational Framework for the Design of Trp- and Arg-Rich Peptide Antibiotics Against Multidrug-Resistant Bacteria” (Frontiers in Microbiology, 2022).
Where a SMILES comes first, the peptide text is derived from it. Bridges are numbered along the chain shown (N, C = ends). [ ]: non-standard residue; d: D form. The star is where a group is joined. X1 = CC[C@H](C)CCCCC(=O)*; Dab = NCC[C@H](N)C(=O)O

Experiments:
E. Faecium = test: microbe, parasite or virus in culture; assay type: cell-based, Enterococcus Facium
Method: Bacterial clinical isolates, used for initial screening and in previous studies ([Deslouches et al., 2013]; [Lin et al., 2018]), were anonymously provided by the clinical microbiology laboratory of the University of Pittsburgh medical Center. The panel used for secondary screening was from [CDC (2013)] (Supplementary Table 3), with resistance profiles data. Bacteria are stored in lock-secured –80°C freezer and typically retrieved by obtaining single colonies on agar plates prior for subsequent liquid broth cultures. Suspensions of test bacteria were prepared from log phase of growth by diluting overnight cultures at 1:100 with fresh cation-adjusted MHB (MHB2, Millipore Sigma, United States) and incubating for additional 3–4 h. Bacteria were spun at 3,000 × g for 10 min and the pellet resuspended in test condition media (Millipore Sigma, United States) to determine bacterial turbidity using a Den-1B densitometer (Grant Instruments, United States) at 0.5 McFarland (unit of bacterial density) corresponding to […].
To examine antibacterial activity, we used minor modifications of a standard growth inhibition assay endorsed by the Clinical and Laboratory Standards Institute (CLSI), as previously described ([Deslouches et al., 2013]). Bacteria were incubated with each of the indicated peptides in MHB2. The bacterial cells were kept in an incubator for 18 h at 37°C, which is linked to a robotic system that feeds a plate reader every hour with one of 8 × 96-well plates. This set-up allows the collection of growth kinetic data at A 570 (absorbance at 570 nm) to examine growth inhibition in real time (BioTek Instruments, United States). […] The assays are typically repeated a second time. If the MIC is different, a third experimental trial is performed to confirm the MIC. To assess bactericidal properties of the peptide, the assay was modified by using 15% fetal bovine serum (FBS, for a more physiologically relevant test condition) mixed with 25% MHB2 and 60% PBS. Bacterial cells (colony forming unit/mL or CFU/mL) were enumerated after incubating treated bacteria for 3 h and plating serially diluted samples on broth agar medium at 37°C overnight. Minimum bactericidal concentration (MBC) was determined as the peptide concentration at which complete bacterial killing was observed. […] Data were analyzed using GraphPad Prism software.

MDR strain PA239 = test: Propidium iodide incorporation by flow cytometry; assay type: cell-based, Pseudomonas aeruginosa; details: 2 μM, treated for 3 h
Source text: To examine whether the selected peptides kill their bacterial target mainly by membrane permeabilization, we used PI incorporation by the MDR strain PA239 (5 × 10^8 CFU/mL) quantitated by flow cytometry (Novocyte, United States) or visualized by video imaging using the digital microscope EVOS M7000 (Thermo Fisher Scientific, United States) in bright field or red fluorescence channel. In the flow cytometry experiments ([Di et al., 2020]), bacterial cells were either untreated or treated with different peptide E35 concentrations in MHB2 for 1 h at 37°C. We washed the bacteria-peptide mixture with PBS using an Eppendorf centrifuge at top speed for 7 min and incubated with PI in the dark for 15 min at room temperature. Tobramycin was used as a negative control with a 3-h long incubation. For video imaging, the broth medium was reduced to 20% in PBS (treated or untreated) to decrease the rate of cell division and PI incorporation assessed over time. Video images were recorded in real time using the 40× objective either in bright field or red fluorescence channel.

Row | SMILES | MIC (E. Faecium; strain EF500, CDC clinical strain, confirmed by a second or third experimental trial) [µM] | MIC (E. Faecium; strain EF671, CDC clinical strain, confirmed by a second or third experimental trial) [µM] | MIC (E. Faecium; strain EF672, CDC clinical strain, confirmed by a second or third experimental trial) [µM] | MIC (E. Faecium; strain EF673, CDC clinical strain, confirmed by a second or third experimental trial) [µM] | MIC (E. Faecium; strain EF23614, UPMC, MHB2, 18 h, 37°C) [µM] | MIC (E. Faecium; strain EF26215, UPMC, MHB2, 18 h, 37°C) [µM] | MIC (E. Faecium; strain EF26692, UPMC, MHB2, 18 h, 37°C) [µM] | PI incorporation (MDR strain PA239) [%]
1 | CC[C@H](C)CCCCC(=O)N[C@@H](CCN)C(=O)N[C@H](C(=O)N[C@@H](CCN)C(=O)N[C@H]1CCNC(=O)[C@H]([C@@H](C)O)NC(=O)[C@H](CCN)NC(=O)[C@H](CCN)NC(=O)[C@H](CC(C)C)NC(=O)[C@@H](CC(C)C)NC(=O)[C@H](CCN)NC1=O)[C@@H](C)O [Colistin, reference compound] (X1-[Dab]T[Dab][Dab][Dab][dL]L[Dab][Dab]T; lactam 4-C (inferred); N-terminus assumed) | >16 | >16 | >16 | >16 | >16 | >16 | >16 | –
2 | NC[C@H]1O[C@H](O[C@H]2[C@H](O)[C@@H](O[C@H]3O[C@H](CO)[C@@H](O)[C@H](N)[C@H]3O)[C@H](N)C[C@@H]2N)[C@H](N)C[C@@H]1O [Tobramycin, reference compound] | – | – | – | – | – | – | – | 29
